{"source": "patent US20240139157A1", "about": "“Novel Tubulin Polymerization Inhibitor for Cancer Therapy” (Board of Regents, The University of Texas System, priority 2022, published 2024)", "key": {"MDA-MB-231 cells": {"system": "MDA-MB-231 cells", "assay": "Annexin V assay by flow cytometry (phosphatidylserine externalization)", "type": "cell-based", "from_the_text": "Phosphatidylserine externalization is a cellular process that involves the translocation of phosphatidylserine from the inner leaflet of the cell's plasma membrane to the outer leaflet. The externalization of phosphatidylserine is recognized by other cells as a signal for engulfment and removal without causing inflammation or damage.\nThe plot illustrated in FIG. 3 was generated by Annexin V assay analyzed by flow cytometry showing the externalization of the phospholipid phosphatidylserine (PS). Treatment of MDA-MB-231 cells with PTA-1 at concentrations of 10 μM and 20 μM for 24 hours induces apoptosis as shown by PS externalization. Each bar represents the average of at least three technical replicates."}, "Jurkat cell line": {"system": "Jurkat cell line", "assay": "Differential nuclear staining cytotoxicity assay, Jurkat", "type": "cell-based", "details": "Homo sapiens, read-out: CC50 (50% cytotoxic concentration)", "from_the_text": "In this illustrative example, PTA-1 can be identified through compound screening by performing differential nuclear staining assay on acute lymphoblastic leukemia CEM T-cell line. Differential nuclear staining assay measures cell viability using Hoechst 33342 fluorescent stain and propidium iodide dyes that stain all nuclei and dead cell nuclei. With reference now to FIG. 2, a table for evaluating cytotoxicity of PTA-1 on different cell lines is depicted in accordance with an illustrative embodiment. In FIG. 2, PTA-1 with chemical structure 100 shown in FIG. 1 is tested to determine cytotoxic activities of PTA-1 on different cell lines. In table 200, column 202 indicates the type of cells that are used to test cytotoxic activities of PTA-1, column 204 indicates the cell line used to test cytotoxic activities of PTA-1, column 206 indicates the CC50 values for different cell lines, and column 208 indicates the length of time that different cell lines are exposed to PTA-1. […] In this illustrative example, a lower CC50 value for a cell line indicates a higher level of PTA-1 cytotoxicity, meaning that PTA-1 is more toxic to the cell line."}, "[1]": {"assay": "Differential nuclear staining cytotoxicity assay, A549", "type": "cell-based", "details": "human; CC50 in non-cancerous cells divided by CC50 in A549; read-out: Selective cytotoxicity index (SCI)", "from_the_text": "(§1) In this illustrative example, PTA-1 can be identified through compound screening by performing differential nuclear staining assay on acute lymphoblastic leukemia CEM T-cell line. Differential nuclear staining assay measures cell viability using Hoechst 33342 fluorescent stain and propidium iodide dyes that stain all nuclei and dead cell nuclei.\n(§2) With reference now to FIG. 2, a table for evaluating cytotoxicity of PTA-1 on different cell lines is depicted in accordance with an illustrative embodiment. In FIG. 2, PTA-1 with chemical structure 100 shown in FIG. 1 is tested to determine cytotoxic activities of PTA-1 on different cell lines.\n(§3) In table 200, column 202 indicates the type of cells that are used to test cytotoxic activities of PTA-1, column 204 indicates the cell line used to test cytotoxic activities of PTA-1, column 206 indicates the CC50 values for different cell lines, and column 208 indicates the length of time that different cell lines are exposed to PTA-1. […]\n(§4) In this illustrative example, the selective cytotoxicity index value is used to determine if a compound has activity preferentially toward cancer cells. […] The selective cytotoxicity index (SCI) value is calculated by dividing the CC50 of the compound in non-cancerous cells (HS27 human fibroblasts or MCF-10A breast epithelial cells) by the CC50 in cancer cells. […]"}, "[2]": {"system": "A549 cell line for lung cancer", "assay": "Differential nuclear staining cytotoxicity assay, A549", "type": "cell-based", "details": "A549, among all cancerous cell lines", "from_the_text": "as §1, §2, §3, §4"}, "[3]": {"assay": "Differential nuclear staining cytotoxicity assay, MDA-MB-231", "type": "cell-based", "details": "human; CC50 in MCF10A divided by CC50 in MDA-MB-231; read-out: Selective cytotoxicity index (SCI)", "from_the_text": "as §1, §2, §3, §4"}, "MDA-MB-231 cell line": {"system": "MDA-MB-231 cell line", "assay": "Differential nuclear staining cytotoxicity assay, MDA-MB-231", "type": "cell-based", "details": "MDA-MB-231, among all cancerous cell lines", "from_the_text": "as §1, §2, §3, §4"}, "[4]": {"system": "MCF10A cell line (non-cancerous breast epithelial cells)", "assay": "Differential nuclear staining cytotoxicity assay, MCF10A", "type": "cell-based", "details": "MCF10A non-cancerous cell line vs cancerous lines", "from_the_text": "as §1, §2, §3, §4"}, "[5]": {"system": "HS27 human fibroblasts (non-cancerous)", "assay": "Differential nuclear staining cytotoxicity assay, HS27", "type": "cell-based", "details": "HS27 non-cancerous cell line vs cancerous lines", "from_the_text": "as §1, §2, §3, §4"}, "[6]": {"assay": "Differential nuclear staining cytotoxicity assay, NALM6", "type": "cell-based", "details": "human; CC50 in non-cancerous cells divided by CC50 in NALM6; read-out: Selective cytotoxicity index (SCI)", "from_the_text": "as §1, §2, §3, §4"}, "[7]": {"system": "caspase-3 in MDA-MB-231 cells", "assay": "Caspase-3 activation, NucView 488 substrate, flow cytometry", "type": "cell-based", "from_the_text": "FIG. 4 depicts a plot illustrating PTA-1 induced caspase-3 activation in accordance with an illustrative embodiment. In FIG. 4, the induction of apoptosis from PTA-1 is corroborated by detecting the activation of the enzyme caspase-3. The fluorogenic reagent NucView 488 caspase-3 substrate was used to detect the activation of caspase 3 via flow cytometry. […] The average of 3 replicates is represented by each bar.\nCaspase enzymes are activated during apoptosis and eventually result in DNA cleavage. In this example, caspase-3 is activated after exposure of the MDA-MB-231 cells at a concentration of 10 μM and 20 μM of PTA-1. […] The data shown in FIG. 4 corroborate the induction of apoptosis as the mechanism of cell death."}, "MDA-MB-231 cell cycle": {"system": "MDA-MB-231 cell cycle", "assay": "Cell cycle analysis", "type": "cell-based", "from_the_text": "FIGS. 5A-5D show the percentages of cells that are affected in different phase after treatment of PTA-1.\nFIGS. 5A-5D illustrate how PTA-1 alters the progression of the MDA-MB-231 cell cycle. Etoposide is used as a positive control. FIG. 5A illustrates PTA-1 induced DNA fragmentation as denoted in the sub G0/G1 phase."}, "[8]": {"system": "microtubules and microfilaments of MDA-MB-231 cells", "assay": "Cytoskeleton imaging by fluorescence microscopy", "type": "cell-based", "details": "10 μM, 4 hours", "from_the_text": "FIG. 8 illustrates alterations in cytoskeletal structures of MDA-MB-231 cells in response to treatment with PTA-1 in accordance with an illustrative embodiment. To test the hypothesis that PTA-1 acts as a tubulin inhibitor, we tested if it could cause alterations in the microtubule organization of MDA-MB-231 cells.\nDisruption of cellular microtubules of MDA-MB-231 cells can be assessed by imaging microtubules using fluorescence microscopy."}, "tubulin": {"system": "tubulin", "assay": "Tubulin polymerization kinetics (absorbance at 340 nm)", "type": "biochemical", "from_the_text": "FIG. 9 depicts a graph illustrating tubulin polymerization of cells treated with PTA-1 in accordance with an illustrative embodiment. Graph 900 illustrates the kinetic curves of four different treatments for tubulin polymerization.\nIn this illustrative example, absorbance is directly correlated with tubulin polymerization. Therefore, if polymerization happens, there is an increase in the absorbance at 340 nm. […] In graph 900 tubulin polymerization can be clearly observed from the increasing absorbance after treatment with PTX. In this example, tubulin polymerization for cells treated with PTX drops immediately after 10 minutes."}}}
{"smiles": "OO", "note": "[H2O2, reference compound]", "values": [{"measurement": "Cell population with phosphatidylserine externalization", "setting": "MDA-MB-231 cells; positive control", "result": 49.9, "unit": "%"}]}
{"smiles": "COc1ccc(-c2cnn(CC(=O)Nc3cnn(C)n3)c2)cc1C(F)(F)F", "note": "[PTA-1, 2-{4-[4-methoxy-3-(trifluoromethyl)phenyl]-1H-pyrazol-1-yl}-N-(2-methyl-2H-1,2,3-triazol-4-yl)acetamide]", "values": [{"measurement": "CC50", "setting": "Jurkat cell line", "result": 0.32, "unit": "µM"}, {"measurement": "selectivity ratio", "setting": "[1]", "result": 105}, {"measurement": "Sensitivity to PTA-1 (CC50 comparison)", "setting": "[2]", "result": "most sensitive"}, {"measurement": "selectivity ratio", "setting": "[3]", "result": 4.73}, {"measurement": "Sensitivity to PTA-1 (CC50 comparison)", "setting": "MDA-MB-231 cell line", "result": "least sensitive"}, {"measurement": "Sensitivity to PTA-1 (CC50 comparison)", "setting": "[4]", "result": "significantly lower sensitivity"}, {"measurement": "Sensitivity to PTA-1 (CC50 comparison)", "setting": "[5]", "result": "significantly lower sensitivity"}, {"measurement": "selectivity ratio", "setting": "[6]", "result": 8.65}, {"measurement": "Cell population with phosphatidylserine externalization", "setting": "MDA-MB-231 cells; 10 μM, 24 hours", "result": 59.4, "unit": "%"}, {"measurement": "Cell population with phosphatidylserine externalization", "setting": "MDA-MB-231 cells; 20 μM, 24 hours", "result": 59.7, "unit": "%"}, {"measurement": "Caspase-3 activation", "setting": "[7]; 10 μM", "result": "significantly induced the activation of Caspase 3"}, {"measurement": "Caspase-3 activation", "setting": "[7]; 20 μM", "result": "significantly induced the activation of Caspase 3"}, {"measurement": "Cells in the G2/M phase", "setting": "MDA-MB-231 cell cycle; 1.25 μM", "result": 53.25, "unit": "%"}, {"measurement": "Cells in the S phase", "setting": "MDA-MB-231 cell cycle; 1.25 μM", "result": 19.8, "unit": "%"}, {"measurement": "DNA fragmentation (sub G0/G1 phase) vs DMSO and untreated", "setting": "MDA-MB-231 cell cycle; 1.25 μM", "result": "significantly higher rates of DNA fragmentations"}, {"measurement": "Cells in the G2/M phase", "setting": "MDA-MB-231 cell cycle; 2.5 μM", "result": 71.5, "unit": "%"}, {"measurement": "Cells in the S phase", "setting": "MDA-MB-231 cell cycle; 2.5 μM", "result": 15.34, "unit": "%"}, {"measurement": "DNA fragmentation (sub G0/G1 phase) vs DMSO and untreated", "setting": "MDA-MB-231 cell cycle; 2.5 μM", "result": "significantly higher rates of DNA fragmentations"}, {"measurement": "Cells in the G2/M phase", "setting": "MDA-MB-231 cell cycle; 5 μM", "result": 66.47, "unit": "%"}, {"measurement": "Cells in the S phase", "setting": "MDA-MB-231 cell cycle; 5 μM", "result": 24.6, "unit": "%"}, {"measurement": "DNA fragmentation (sub G0/G1 phase) vs DMSO and untreated", "setting": "MDA-MB-231 cell cycle; 5 μM", "result": "significantly higher rates of DNA fragmentations"}, {"measurement": "Cells in the G0/G1 phase", "setting": "MDA-MB-231 cell cycle; different concentrations", "result": "did not result in a higher percentage of cells in the G0/G1 phase"}, {"measurement": "Microfilament structure (phalloidin-Alexa-568 staining)", "setting": "[8]", "result": "remained unaltered"}, {"measurement": "Microtubule organization (α-tubulin-Alexa-488 staining)", "setting": "[8]", "result": "disrupts the microtubule organization"}, {"measurement": "Absorbance (tubulin polymerization)", "setting": "tubulin; 340 nm, after 60 minutes of treatment, DMSO 0.3702", "result": 0.3247}, {"measurement": "Duration of nucleation phase (absorbance starts increasing)", "setting": "tubulin; absorbance at 340 nm", "result": "four"}, {"measurement": "Kinetic curve of tubulin polymerization compared with DMSO", "setting": "tubulin; absorbance at 340 nm", "result": "never reached the absorbance values of cells treated with DMSO"}, {"measurement": "Time to reach steady state of tubulin polymerization", "setting": "tubulin; absorbance at 340 nm", "result": 20, "unit": "min"}]}
{"smiles": "CC[C@]1(O)C[C@@H]2CN(CCc3c([nH]c4ccccc34)[C@@](C(=O)OC)(c3cc4c(cc3OC)N(C)[C@H]3[C@@](O)(C(=O)OC)[C@H](OC(C)=O)[C@]5(CC)C=CCN6CC[C@]43[C@@H]65)C2)C1", "note": "[Vinblastine, reference compound]", "values": [{"measurement": "Duration of nucleation phase (absorbance starts increasing)", "setting": "tubulin; absorbance at 340 nm", "result": "four"}, {"measurement": "Kinetic curve of tubulin polymerization compared with DMSO", "setting": "tubulin; absorbance at 340 nm", "result": "never reached the absorbance values of cells treated with DMSO"}]}
{"smiles": "COc1cc([C@@H]2c3cc4c(cc3[C@@H](O[C@@H]3O[C@@H]5CO[C@@H](C)O[C@H]5[C@H](O)[C@H]3O)[C@H]3COC(=O)[C@H]23)OCO4)cc(OC)c1O", "note": "[etoposide, reference compound]", "values": [{"measurement": "Cells in the G2/M phase", "setting": "MDA-MB-231 cell cycle; positive control", "result": 15.4, "unit": "%"}, {"measurement": "Cells with DNA fragmentation (sub G0/G1 phase)", "setting": "MDA-MB-231 cell cycle; positive control", "result": 28.6, "unit": "%"}]}
{"smiles": "CC(=O)O[C@H]1C(=O)[C@@]2(C)[C@H]([C@H](OC(=O)c3ccccc3)[C@]3(O)C[C@H](OC(=O)[C@H](O)[C@@H](NC(=O)c4ccccc4)c4ccccc4)C(C)=C1C3(C)C)[C@]1(OC(C)=O)CO[C@@H]1C[C@@H]2O", "note": "[paclitaxel, reference compound]", "values": [{"measurement": "Growth phase of tubulin polymerization", "setting": "tubulin; absorbance at 340 nm", "result": "started immediately"}, {"measurement": "Time after which tubulin polymerization drops", "setting": "tubulin; absorbance at 340 nm", "result": 10, "unit": "min"}]}
